According to patent publication US5731326A, “PDGF antagonists II” (ZymoGenetics, Inc., priority 1996, dated 1998):

Legend:
PMA = experiment: SRE-luciferase antagonist assay, induction by PMA; format: cell-based; conditions: Swiss-3T3, SWISS3T3 cells, 5 hours, approximate
[1] = tested on: baboon smooth muscle cells; experiment: Wash-out study of PDGF-BB mitogenic activity on baboon smooth muscle cells; format: cell-based; conditions: mean +/- SD
Protocol: NNC92-0270 was analyzed for prolonged inhibitory effect on PDGF-BB mitogenic activity on baboon smooth muscle cells in a wash-out experiment. Baboon SMCs were plated at 20,000 cells per well in a 24-well culture dish and grown for 2 days. The culture media was removed and replaced with Mito Media (Table 5) to allow the cells to become quiescent. The experiment was set up such that cells were treated with NNC92-0270 or vehicle control (0.5% DMSO) for either 24 hours prior to the addition of PDGF-BB, or sequentially with the addition of PDGF-BB. Those cells initially treated with NNC92-0270 or control vehicle for 24 hours, were washed with Mito Media to remove the test compound and then incubated with PDGF-BB (1 ng/ml) for an additional 24 hours. A second set of cells was treated with NNC92-0270 or vehicle control simultaneously with PDGF-BB for 24 hours. The cells were pulse labeled for 4 hours with [^3 H] thymidine (1 μCi/ml final) harvested with trypsin and counted in a Wallac Betaplate counter to determine CPM for [^3 H] thymidine incorporation.
Acetic acid (10 mM) was used as the PDGF-BB vehicle control and 0.5% DMSO was used as the test compound control.

[2] = biological target: T1, cell-surface PDGF receptors (Rattus norvegicus, UniProt Q05030); experiment: Inhibition of 125I-PDGF-BB binding to rat SMCs in the presence and absence of human serum; conditions: for CPM Bound, Binding Media + 10% Human Serum / CPM Bound, Binding Media: total CPM bound; for CPM Bound, Binding Media + 10% Human Serum: neg. control 1152; for CPM Bound, Binding Media: neg. control 1990
T1 construct: endogenous in cells; host or cells: rat smooth muscle cells (SMCs), monolayer culture
T1 sequence (Q05030 32-1097): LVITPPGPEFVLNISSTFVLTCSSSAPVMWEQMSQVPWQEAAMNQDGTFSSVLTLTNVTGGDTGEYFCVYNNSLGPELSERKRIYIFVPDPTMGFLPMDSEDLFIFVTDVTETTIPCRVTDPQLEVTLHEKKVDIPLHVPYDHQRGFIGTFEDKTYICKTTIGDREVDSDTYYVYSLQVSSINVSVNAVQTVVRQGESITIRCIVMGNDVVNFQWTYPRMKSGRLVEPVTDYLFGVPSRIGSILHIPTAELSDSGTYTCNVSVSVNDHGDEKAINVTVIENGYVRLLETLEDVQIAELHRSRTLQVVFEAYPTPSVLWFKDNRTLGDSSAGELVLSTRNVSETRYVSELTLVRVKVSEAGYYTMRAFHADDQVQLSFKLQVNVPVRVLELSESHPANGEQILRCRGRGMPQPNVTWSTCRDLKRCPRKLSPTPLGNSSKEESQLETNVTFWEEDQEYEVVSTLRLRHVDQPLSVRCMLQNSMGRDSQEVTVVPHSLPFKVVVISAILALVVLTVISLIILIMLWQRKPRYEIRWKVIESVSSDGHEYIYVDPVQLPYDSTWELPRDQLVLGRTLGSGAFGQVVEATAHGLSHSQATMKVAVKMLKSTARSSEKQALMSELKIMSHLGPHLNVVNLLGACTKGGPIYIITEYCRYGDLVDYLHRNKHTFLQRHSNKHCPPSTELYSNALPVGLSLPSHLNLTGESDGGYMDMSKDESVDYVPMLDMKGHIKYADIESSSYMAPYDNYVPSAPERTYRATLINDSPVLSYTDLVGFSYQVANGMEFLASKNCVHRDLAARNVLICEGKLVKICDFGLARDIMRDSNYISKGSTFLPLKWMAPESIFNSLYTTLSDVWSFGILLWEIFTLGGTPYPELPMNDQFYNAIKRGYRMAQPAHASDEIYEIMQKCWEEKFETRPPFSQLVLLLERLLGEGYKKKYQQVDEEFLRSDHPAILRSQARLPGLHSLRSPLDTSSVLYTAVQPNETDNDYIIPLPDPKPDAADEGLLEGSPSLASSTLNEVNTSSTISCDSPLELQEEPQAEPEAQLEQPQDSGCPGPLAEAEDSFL
Protocol: (§1) NNC92-0270 was analyzed for the ability to inhibit ^125 I-PDGF-BB binding to monolayers of rat SMCs. To assay for inhibition of ^125 I-PDGF-BB binding to rat SMCs, the SMCs were plated at approximately 20,000 cells/well in 24-well culture dishes. The cells were used for assay 2-7 days after plating. The test compound was diluted in binding media (500 ml Ham's F-12 (Gibco BRL), 12 ml 1M Hepes pH 7.4, 5 ml 100×PSN (Gibco BRL), 1 gm rabbit serum albumin (Sigma Chemical Co., St. Louis, Mo.) to the concentrations shown in Table 2, then added to the SMCs (1 ml/well) in triplicate. To the wells was then added 50 μl of a ^125 I-PDGF-BB stock solution. Binding media alone was used as the negative control, and the addition of 200 ng/ml of PDGF-BB was used to determine nonspecific binding for ^125 I-PDGF-BB. The cells were incubated for approximately 11/2 hours at 4° C., then washed with binding media to remove unbound ligand. The cells were then incubated with extraction buffer (20 mM Tris-HCl, pH 8.0, 100 mM NaCl, 1 mM EDTA, 0.5% Nonident P-40, 0.5% sodium deoxycholate, 10 mM NaI, 1% bovine serum albumin), and the extracts were harvested and counted in a gamma counter. The data are presented as specific cpm bound for ^125 I-PDGF-BB. Nonspecific binding, determined by the addition of 200 ng/ml of unlabeled PDGF-BB, was 853 cpm, and has been subtracted from the data presented.
NNC92-0270 was subsequently analyzed for its ability to inhibit ^125 I-PDGF-BB binding to rat SMCs when the radioligand was added to the cells in the presence of 10% human serum. The rat SMCs were plated into 24-well culture dishes and assayed as described above. The test compound was diluted to the concentrations shown in Table 3 in either binding media alone, or binding media containing 10% human serum, and 1 ml aliquots added to the test cells in triplicate. Fifty microliters of a 20×stock solution of ^125 I-PDGF-BB was added to each well. The cells were incubated for 2.5 hours at 4 ° C., washed with binding media to remove unbound ligand, and harvested with extraction buffer. The extracts were then counted in a gamma counter to determine CPM bound. […] It should be noted that the binding of ^125 I-PDGF-BB was lower in the negative control sample containing the human serum, over the negative control sample with binding media alone. The results are presented as total CPM bound.

[3] = biological target: T1, cell-surface PDGF receptors; experiment: Inhibition of 125I-PDGF-BB binding to rat SMCs; conditions: for 125I PDGF-BB Bound (CPM): specific cpm, nonspecific subtracted, negative control 10006
Protocol: as §1

Question: What does the source list for `O=C(NN1CCCCC1)NS(=O)(=O)c1ccc(CCNC(=O)c2[nH]c3ccccc3c2OCc2ccccc2)cc1` [NNC92-0270]?
Answer: IC50 (PMA): > 100 µM; [3H] Thymidine Incorporation (cpm) ([1]; T = -24 hrs 0.5% DMSO, T = 0 hrs compound simultaneously with PDGF-BB (1 ng/ml)): 678 +/- 68 cpm; [3H] Thymidine Incorporation (cpm) ([1]; T = -24 hrs compound, washed out, T = 0 hrs PDGF-BB (1 ng/ml)): 5735 +/- 474 cpm; [3H] Thymidine Incorporation (cpm) ([1]; T = -24 hrs compound, washed out, T = 0 hrs acetic acid (no PDGF-BB)): 237 +/- 36 cpm; remaining activity at 12.5 µM ([2]; 12.5 μM, 10% human serum, read-out: % CB (% Control Binding), Binding Media + 10% Human Serum): 30%; CPM Bound, Binding Media + 10% Human Serum ([2]; 12.5 μM, 10% human serum): 349 CPM; remaining activity at 12.5 µM ([2]; 12.5 μM, binding media alone, read-out: % CB (% Control Binding), Binding Media): 36%; CPM Bound, Binding Media ([2]; 12.5 μM, binding media alone): 722 CPM; remaining activity at 25 µM ([2]; 25 μM, 10% human serum, read-out: % CB (% Control Binding), Binding Media + 10% Human Serum): 21%; CPM Bound, Binding Media + 10% Human Serum ([2]; 25 μM, 10% human serum): 244 CPM; remaining activity at 25 µM ([2]; 25 μM, binding media alone, read-out: % CB (% Control Binding), Binding Media): 30%; CPM Bound, Binding Media ([2]; 25 μM, binding media alone): 605 CPM; remaining activity at 50 µM ([2]; 50 μM, 10% human serum, read-out: % CB (% Control Binding), Binding Media + 10% Human Serum): 14%; CPM Bound, Binding Media + 10% Human Serum ([2]; 50 μM, 10% human serum): 162 CPM; remaining activity at 50 µM ([2]; 50 μM, binding media alone, read-out: % CB (% Control Binding), Binding Media): 23%; CPM Bound, Binding Media ([2]; 50 μM, binding media alone): 467 CPM; Potency for inhibiting 125I-PDGF-BB binding in 10% human serum compared to binding media alone (in words) ([2]; rat SMCs): approximately equal potency; 125I PDGF-BB Bound (CPM) ([3]; 6.2 μM): 5228 CPM; 125I PDGF-BB Bound (CPM) ([3]; 12.5 μM): 2823 CPM; 125I PDGF-BB Bound (CPM) ([3]; 25 μM): 920 CPM; 125I PDGF-BB Bound (CPM) ([3]; 50 μM): 532 CPM; 125I PDGF-BB Bound (CPM) ([3]; 100 μM): 378 CPM; remaining activity at 6.2 µM ([3]; 1.5 h, 6.2 μM, read-out: % Control Binding): 52%; remaining activity at 12.5 µM ([3]; 1.5 h, 12.5 μM, read-out: % Control Binding): 28%; remaining activity at 25 µM ([3]; 1.5 h, 25 μM, read-out: % Control Binding): 9%; remaining activity at 50 µM ([3]; 1.5 h, 50 μM, read-out: % Control Binding): 5%; remaining activity at 100 µM ([3]; 1.5 h, 100 μM, read-out: % Control Binding): 4%; Inhibition of PDGF-BB binding to cell-surface PDGF receptors (in words) ([3]; rat SMCs): potent inhibitor
